Source: BigSolDB 2.1

## CC(=O)c1ccc([N+](=O)[O-])cc1
In acetone, 278.15 K
  solubility (mole fraction): 0.134
In acetone, 283.15 K
  solubility (mole fraction): 0.158
In acetone, 288.15 K
  solubility (mole fraction): 0.185
In acetone, 293.15 K
  solubility (mole fraction): 0.216
In acetone, 298.15 K
  solubility (mole fraction): 0.25
In acetone, 303.15 K
  solubility (mole fraction): 0.287
In acetone, 308.15 K
  solubility (mole fraction): 0.33
In acetone, 313.15 K
  solubility (mole fraction): 0.376
In acetone, 318.15 K
  solubility (mole fraction): 0.428
In acetonitrile, 278.15 K
  solubility (mole fraction): 0.103
In acetonitrile, 283.15 K
  solubility (mole fraction): 0.123
In acetonitrile, 288.15 K
  solubility (mole fraction): 0.146
In acetonitrile, 293.15 K
  solubility (mole fraction): 0.174
In acetonitrile, 298.15 K
  solubility (mole fraction): 0.206
In acetonitrile, 303.15 K
  solubility (mole fraction): 0.244
In acetonitrile, 308.15 K
  solubility (mole fraction): 0.287
In acetonitrile, 313.15 K
  solubility (mole fraction): 0.336
In acetonitrile, 318.15 K
  solubility (mole fraction): 0.389
In cyclohexane, 283.15 K
  solubility (mole fraction): 0.00154
In cyclohexane, 288.15 K
  solubility (mole fraction): 0.00203
In cyclohexane, 293.15 K
  solubility (mole fraction): 0.00259
In cyclohexane, 298.15 K
  solubility (mole fraction): 0.00332
In cyclohexane, 303.15 K
  solubility (mole fraction): 0.00423
In cyclohexane, 308.15 K
  solubility (mole fraction): 0.00542
In cyclohexane, 313.15 K
  solubility (mole fraction): 0.00694
In cyclohexane, 318.15 K
  solubility (mole fraction): 0.0089
In ethanol, 278.15 K
  solubility (mole fraction): 0.00667
In ethanol, 283.15 K
  solubility (mole fraction): 0.00821
In ethanol, 288.15 K
  solubility (mole fraction): 0.01
In ethanol, 293.15 K
  solubility (mole fraction): 0.0123
In ethanol, 298.15 K
  solubility (mole fraction): 0.0155
In ethanol, 303.15 K
  solubility (mole fraction): 0.019
In ethanol, 308.15 K
  solubility (mole fraction): 0.0236
In ethanol, 313.15 K
  solubility (mole fraction): 0.0293
In ethanol, 318.15 K
  solubility (mole fraction): 0.0365
In ethyl acetate, 278.15 K
  solubility (mole fraction): 0.101
In ethyl acetate, 283.15 K
  solubility (mole fraction): 0.117
In ethyl acetate, 288.15 K
  solubility (mole fraction): 0.137
In ethyl acetate, 293.15 K
  solubility (mole fraction): 0.161
In ethyl acetate, 298.15 K
  solubility (mole fraction): 0.188
In ethyl acetate, 303.15 K
  solubility (mole fraction): 0.22
In ethyl acetate, 308.15 K
  solubility (mole fraction): 0.257
In ethyl acetate, 313.15 K
  solubility (mole fraction): 0.3
In ethyl acetate, 318.15 K
  solubility (mole fraction): 0.345
In isopropanol, 278.15 K
  solubility (mole fraction): 0.00349
In isopropanol, 283.15 K
  solubility (mole fraction): 0.00455
In isopropanol, 288.15 K
  solubility (mole fraction): 0.00577
In isopropanol, 293.15 K
  solubility (mole fraction): 0.00758
In isopropanol, 298.15 K
  solubility (mole fraction): 0.00978
In isopropanol, 303.15 K
  solubility (mole fraction): 0.0128
In isopropanol, 308.15 K
  solubility (mole fraction): 0.0169
In isopropanol, 313.15 K
  solubility (mole fraction): 0.0223
In isopropanol, 318.15 K
  solubility (mole fraction): 0.0296
In methanol, 278.15 K
  solubility (mole fraction): 0.00839
In methanol, 283.15 K
  solubility (mole fraction): 0.0102
In methanol, 288.15 K
  solubility (mole fraction): 0.0125
In methanol, 293.15 K
  solubility (mole fraction): 0.0155
In methanol, 298.15 K
  solubility (mole fraction): 0.0187
In methanol, 303.15 K
  solubility (mole fraction): 0.0231
In methanol, 308.15 K
  solubility (mole fraction): 0.0283
In methanol, 313.15 K
  solubility (mole fraction): 0.0343
In methanol, 318.15 K
  solubility (mole fraction): 0.0421
In n-propanol, 278.15 K
  solubility (mole fraction): 0.00481
In n-propanol, 283.15 K
  solubility (mole fraction): 0.00608
In n-propanol, 288.15 K
  solubility (mole fraction): 0.00762
In n-propanol, 293.15 K
  solubility (mole fraction): 0.00968
In n-propanol, 298.15 K
  solubility (mole fraction): 0.0121
In n-propanol, 303.15 K
  solubility (mole fraction): 0.0154
In n-propanol, 308.15 K
  solubility (mole fraction): 0.0194
In n-propanol, 313.15 K
  solubility (mole fraction): 0.0246
In n-propanol, 318.15 K
  solubility (mole fraction): 0.0313
In toluene, 278.15 K
  solubility (mole fraction): 0.0674
In toluene, 283.15 K
  solubility (mole fraction): 0.0806
In toluene, 288.15 K
  solubility (mole fraction): 0.0959
In toluene, 293.15 K
  solubility (mole fraction): 0.114
In toluene, 298.15 K
  solubility (mole fraction): 0.137
In toluene, 303.15 K
  solubility (mole fraction): 0.164
In toluene, 308.15 K
  solubility (mole fraction): 0.195
In toluene, 313.15 K
  solubility (mole fraction): 0.232
In toluene, 318.15 K
  solubility (mole fraction): 0.275

## CC(=O)c1cccc([N+](=O)[O-])c1
In acetone, 278.15 K
  solubility (mole fraction): 0.1
In acetone, 283.15 K
  solubility (mole fraction): 0.121
In acetone, 288.15 K
  solubility (mole fraction): 0.146
In acetone, 293.15 K
  solubility (mole fraction): 0.179
In acetone, 298.15 K
  solubility (mole fraction): 0.218
In acetone, 303.15 K
  solubility (mole fraction): 0.264
In acetone, 308.15 K
  solubility (mole fraction): 0.319
In acetone, 313.15 K
  solubility (mole fraction): 0.384
In acetone, 318.15 K
  solubility (mole fraction): 0.458
In acetonitrile, 278.15 K
  solubility (mole fraction): 0.0717
In acetonitrile, 283.15 K
  solubility (mole fraction): 0.0892
In acetonitrile, 288.15 K
  solubility (mole fraction): 0.116
In acetonitrile, 293.15 K
  solubility (mole fraction): 0.147
In acetonitrile, 298.15 K
  solubility (mole fraction): 0.185
In acetonitrile, 303.15 K
  solubility (mole fraction): 0.233
In acetonitrile, 308.15 K
  solubility (mole fraction): 0.292
In acetonitrile, 313.15 K
  solubility (mole fraction): 0.367
In acetonitrile, 318.15 K
  solubility (mole fraction): 0.454
In cyclohexane, 283.15 K
  solubility (mole fraction): 0.00124
In cyclohexane, 288.15 K
  solubility (mole fraction): 0.00159
In cyclohexane, 293.15 K
  solubility (mole fraction): 0.00204
In cyclohexane, 298.15 K
  solubility (mole fraction): 0.0026
In cyclohexane, 303.15 K
  solubility (mole fraction): 0.00333
In cyclohexane, 308.15 K
  solubility (mole fraction): 0.0043
In cyclohexane, 313.15 K
  solubility (mole fraction): 0.0056
In cyclohexane, 318.15 K
  solubility (mole fraction): 0.00743
In ethanol, 278.15 K
  solubility (mole fraction): 0.00487
In ethanol, 283.15 K
  solubility (mole fraction): 0.00619
In ethanol, 288.15 K
  solubility (mole fraction): 0.00785
In ethanol, 293.15 K
  solubility (mole fraction): 0.00993
In ethanol, 298.15 K
  solubility (mole fraction): 0.0125
In ethanol, 303.15 K
  solubility (mole fraction): 0.0158
In ethanol, 308.15 K
  solubility (mole fraction): 0.0204
In ethanol, 313.15 K
  solubility (mole fraction): 0.0262
In ethanol, 318.15 K
  solubility (mole fraction): 0.0355
In ethyl acetate, 278.15 K
  solubility (mole fraction): 0.0782
In ethyl acetate, 283.15 K
  solubility (mole fraction): 0.0906
In ethyl acetate, 288.15 K
  solubility (mole fraction): 0.109
In ethyl acetate, 293.15 K
  solubility (mole fraction): 0.132
In ethyl acetate, 298.15 K
  solubility (mole fraction): 0.159
In ethyl acetate, 303.15 K
  solubility (mole fraction): 0.191
In ethyl acetate, 308.15 K
  solubility (mole fraction): 0.23
In ethyl acetate, 313.15 K
  solubility (mole fraction): 0.277
In ethyl acetate, 318.15 K
  solubility (mole fraction): 0.341
In isopropanol, 278.15 K
  solubility (mole fraction): 0.00433
In isopropanol, 283.15 K
  solubility (mole fraction): 0.00517
In isopropanol, 288.15 K
  solubility (mole fraction): 0.00635
In isopropanol, 293.15 K
  solubility (mole fraction): 0.00778
In isopropanol, 298.15 K
  solubility (mole fraction): 0.00944
In isopropanol, 303.15 K
  solubility (mole fraction): 0.0117
In isopropanol, 308.15 K
  solubility (mole fraction): 0.0145
In isopropanol, 313.15 K
  solubility (mole fraction): 0.018
In isopropanol, 318.15 K
  solubility (mole fraction): 0.023
In methanol, 278.15 K
  solubility (mole fraction): 0.00642
In methanol, 283.15 K
  solubility (mole fraction): 0.00759
In methanol, 288.15 K
  solubility (mole fraction): 0.00928
In methanol, 293.15 K
  solubility (mole fraction): 0.0117
In methanol, 298.15 K
  solubility (mole fraction): 0.0146
In methanol, 303.15 K
  solubility (mole fraction): 0.0183
In methanol, 308.15 K
  solubility (mole fraction): 0.0231
In methanol, 313.15 K
  solubility (mole fraction): 0.0299
In methanol, 318.15 K
  solubility (mole fraction): 0.0389
In n-propanol, 278.15 K
  solubility (mole fraction): 0.00388
In n-propanol, 283.15 K
  solubility (mole fraction): 0.00487
In n-propanol, 288.15 K
  solubility (mole fraction): 0.00609
In n-propanol, 293.15 K
  solubility (mole fraction): 0.00763
In n-propanol, 298.15 K
  solubility (mole fraction): 0.00975
In n-propanol, 303.15 K
  solubility (mole fraction): 0.0124
In n-propanol, 308.15 K
  solubility (mole fraction): 0.0157
In n-propanol, 313.15 K
  solubility (mole fraction): 0.0204
In n-propanol, 318.15 K
  solubility (mole fraction): 0.0265
In toluene, 278.15 K
  solubility (mole fraction): 0.0545
In toluene, 283.15 K
  solubility (mole fraction): 0.0657
In toluene, 288.15 K
  solubility (mole fraction): 0.082
In toluene, 293.15 K
  solubility (mole fraction): 0.103
In toluene, 298.15 K
  solubility (mole fraction): 0.128
In toluene, 303.15 K
  solubility (mole fraction): 0.161
In toluene, 308.15 K
  solubility (mole fraction): 0.2
In toluene, 313.15 K
  solubility (mole fraction): 0.254
In toluene, 318.15 K
  solubility (mole fraction): 0.328
